Results on 1 compound are retold here after PMC7095208 (Nature, 2014).

For test [1], the system named is RAVV. The conditions noted are these: mouse, in vivo.
Test [2] has as its system EBOV. Particulars: mouse, in vivo.

For `Nc1ncnc2c([C@@H]3N[C@H](CO)[C@@H](O)[C@H]3O)c[nH]c12` [BCX4430, (2S,3S,4R,5R)-2-(4-amino-5H-pyrrolo[3,2-d]pyrimidin-7-yl)-5-(hydroxymethyl)pyrrolidine-3,4-diol], in test [1], the protection is listed as 75–100% and the “protection (survival vs vehicle)” value was “significant protection”. Besides, the “protection against lethal EBOV challenge” value in test [2] is “protected”.
